# Experimental data as given in US11986450B2, “Methods and compositions for treating infection and inflammation with selenocyanate” (National Jewish Health, priority 2017, dated 2024).
# Experiments:
# DmTrxR (containing Cys) = DmTrxR (containing Cys) (Drosophila melanogaster, UniProt P91938); experiment: Inactivation of TrxR by oxidants; type: biochemical
# Description: (§1) Based on data, it is expected that Sec-TrxR1 is able to metabolize both HOSCN and HOSeCN but not HOCl, and that Cys-TrxR's is unable to metabolize these oxidants. The active site Cys or Sec residue of each respective enzyme is oxidized to either Cys-SO2^− or Sec-SeO2^−. The Cys-TrxR cannot recover from this oxidation while the Sec-TrxR can. To test this, an inactivation assay is performed followed by structural analysis of the protein by MS. In the inactivation assay, (i) enzymes are reduced with NADPH, (ii) the enzymes are treated with oxidant followed by desalting to remove oxidant, and (iii) the enzyme is assayed for activity. […] The proteins are proteolyzed followed by LC-MS analyses. The LC-MS profiles are compared to control samples not treated with oxidant. This determines the exact mechanism of inactivation for each enzyme. […] This would explain why HOCl is highly inflammatory (nonspecific oxidation), and why HOSCN is used as a bactericide because it can rapidly inactivate proteins/enzyme by oxidation of sulfur amino acids (Cys, Met), but can be metabolized by the host cell by Sec-TrxR.
# [1] = target: Sec-containing TrxR2 (Sec-TrxR2) (Mus musculus, UniProt Q9JLT4); experiment: Inactivation of TrxR by oxidants; type: biochemical
# Chain of Sec-containing TrxR2 (Sec-TrxR2) (Q9JLT4 35-524): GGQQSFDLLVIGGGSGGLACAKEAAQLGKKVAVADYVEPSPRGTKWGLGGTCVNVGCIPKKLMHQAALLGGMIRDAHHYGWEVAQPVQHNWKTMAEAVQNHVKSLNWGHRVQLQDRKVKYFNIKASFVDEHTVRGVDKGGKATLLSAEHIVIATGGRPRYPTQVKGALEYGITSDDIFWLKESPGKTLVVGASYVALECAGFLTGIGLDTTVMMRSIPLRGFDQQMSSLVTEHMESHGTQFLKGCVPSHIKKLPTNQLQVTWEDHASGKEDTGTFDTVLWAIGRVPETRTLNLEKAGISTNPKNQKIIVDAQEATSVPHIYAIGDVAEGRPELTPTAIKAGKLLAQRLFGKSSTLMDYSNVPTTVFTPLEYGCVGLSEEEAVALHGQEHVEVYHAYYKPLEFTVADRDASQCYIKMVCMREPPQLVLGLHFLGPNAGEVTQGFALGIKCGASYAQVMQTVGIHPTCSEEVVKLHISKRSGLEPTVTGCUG
# Description: as §1
# [2] = target: recombinant E. coli Cys-TrxR (Escherichia coli, UniProt P0A9P4); experiment: Kinetic analysis of HOSCN metabolism and inhibition; type: biochemical
# Chain of recombinant E. coli Cys-TrxR (P0A9P4 whole entry, the tested form may be a part): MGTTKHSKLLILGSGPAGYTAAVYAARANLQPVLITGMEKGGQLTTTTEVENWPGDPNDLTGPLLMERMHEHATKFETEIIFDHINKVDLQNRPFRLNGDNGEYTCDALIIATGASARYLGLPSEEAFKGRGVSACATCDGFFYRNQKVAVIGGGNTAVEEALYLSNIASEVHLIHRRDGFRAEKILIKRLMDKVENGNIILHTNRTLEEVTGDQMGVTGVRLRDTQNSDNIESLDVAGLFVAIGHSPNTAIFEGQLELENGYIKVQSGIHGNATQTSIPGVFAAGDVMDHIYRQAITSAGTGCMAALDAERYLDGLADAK
# Source text: FIGS. 3A-3B. Kinetic analysis of HOSCN metabolism by recombinant mouse Sec-TrxR and recombinant E. coli Cys-TrxR. […] Sec-TrxR forms that lack a selenocysteine (Sec489Cys) or truncated by the last 8 amino acids (D8) had diminished activity.
# AMT-9 = experiment: Bacterial sensitivity towards HOSCN killing; type: cell-based, Pseudomonas aeruginosa (PA); details: AMT-9, CF sputum isolate; HOSCN flux for 2 hours, GOX/LPO/SCN system, pH 7.4
# Description: (§2) FIGS. 11A-11D. […] A lactoperoxidase (LPO) system was used to generate increasing fluxes of either HOSCN or HOSeCN in presence of 400 μM of either ^−SCN or ^−SeCN. LPO in the presence of a hydrogen peroxide generating system (glucose oxidase, GOX) can convert both thiocyanate and selenocyante to their respective hypopseudohalous acid species (HOSCN and HOSeCN) that are biocides. […] Bacterial inoculums (10^6 colony forming units, CFU) were incubated with host defense system for 2 hours at room temperature and bacteria were plated on LB agar plates and cell viability was determined by dilution and counting CFUs.
# (§3) LPO in the presence of a hydrogen peroxide generating system (glucose oxidase, GOX) can convert both thiocyanate and selenocyante to their respective hypopseudohalous acid species (HOSCN and HOSeCN) that are biocides. […] Bacterial inoculums (10^6 colony forming units, CFU) were incubated with host defense system for 2 hours at room temperature and bacteria were plated on LB agar plates and cell viability was determined by dilution and counting CFUs. Lethal concentrations that kill 50% of bacteria (LC50) were determined by non-linear curve fitting the data.
# (§4) Bacteria were incubated for 2 hour with LPO, ^−SCN or SeCN, glucose and increasing amounts of GOX. The flux (HOX) of either HOSCN or HOSeCN was determined from standard curves of GOX/LPO and either HOSCN or HOSeCN. LC50 values were determined by curve fitting the data with nonlinear regression of log (agonist) vs normalized response.
# PA 39 = experiment: Bacterial sensitivity towards HOSCN killing; type: cell-based, Pseudomonas aeruginosa (PA); details: PA 39, CF sputum isolate; HOSCN flux for 2 hours, GOX/LPO/SCN system, pH 7.4
# Description: as §2, §3, §4
# PA-X = experiment: Bacterial sensitivity towards HOSCN killing; type: cell-based, Pseudomonas aeruginosa (PA); details: CF sputum isolate, HOSCN flux for 2 hours, GOX/LPO/SCN system, pH 7.4
# Description: as §2, §3, §4
# PAO1 = experiment: Bacterial sensitivity towards HOSCN killing; type: cell-based, Pseudomonas aeruginosa (PA); details: HOSCN flux for 2 hours, GOX/LPO/SCN system, pH 7.4
# Description: as §2, §3, §4
# PA-T = experiment: Bacterial sensitivity towards HOSCN killing; type: cell-based, Pseudomonas aeruginosa (PA); details: CF sputum isolate, HOSCN flux for 2 hours, GOX/LPO/SCN system, pH 7.4
# Description: as §2, §3, §4
# P. aeruginosa: AMT0027L [3] = experiment: Viability after HOSCN exposure; details: late disease antibiotic-resistant CF isolate
# P. aeruginosa: AMT0027L [4] = experiment: HOSCN reductase activity
# B. cenocepacia = experiment: Bacterial sensitivity towards HOSCN killing; type: cell-based, Burkholderia cepacia complex (BCC); details: CF sputum isolate, HOSCN flux for 2 hours, GOX/LPO/SCN system, pH 7.4
# Description: as §2, §3, §4
# B. dolsa = experiment: Bacterial sensitivity towards HOSCN killing; type: cell-based, Burkholderia cepacia complex (BCC); details: CF sputum isolate, HOSCN flux for 2 hours, GOX/LPO/SCN system, pH 7.4
# Description: as §2, §3, §4
# B. vietnameisis = experiment: Bacterial sensitivity towards HOSCN killing; type: cell-based, Burkholderia cepacia complex (BCC); details: HOSCN flux for 2 hours, GOX/LPO/SCN system, pH 7.4
# Description: as §2, §3, §4
# B. multivorans 41 = experiment: Bacterial sensitivity towards HOSCN killing; type: cell-based, Burkholderia cepacia complex (BCC); details: B. multivorans 41, CF sputum isolate; HOSCN flux for 2 hours, GOX/LPO/SCN system, pH 7.4
# Description: as §2, §3, §4
# P. aeruginosa: AMT0009L [5] = experiment: Viability after HOSCN exposure; details: late disease antibiotic-resistant CF isolate
# P. aeruginosa: AMT0145L [6] = experiment: HOSCN reductase activity
# P. aeruginosa: AMT0145L [7] = experiment: Viability after HOSCN exposure; details: late disease antibiotic-resistant CF isolate
# P. aeruginosa: AMT0058L = experiment: HOSCN reductase activity
# [8] = tested on: Human bronchial epithelial (16HBE) cells; experiment: HOSCN reductase activity; details: human 16HBE cells
# P. aeruginosa: AMT0294L = experiment: HOSCN reductase activity
# P. aeruginosa: AMT0009L [9] = experiment: HOSCN reductase activity
# Chain of DmTrxR (containing Cys) (P91938 112-596 limits assumed): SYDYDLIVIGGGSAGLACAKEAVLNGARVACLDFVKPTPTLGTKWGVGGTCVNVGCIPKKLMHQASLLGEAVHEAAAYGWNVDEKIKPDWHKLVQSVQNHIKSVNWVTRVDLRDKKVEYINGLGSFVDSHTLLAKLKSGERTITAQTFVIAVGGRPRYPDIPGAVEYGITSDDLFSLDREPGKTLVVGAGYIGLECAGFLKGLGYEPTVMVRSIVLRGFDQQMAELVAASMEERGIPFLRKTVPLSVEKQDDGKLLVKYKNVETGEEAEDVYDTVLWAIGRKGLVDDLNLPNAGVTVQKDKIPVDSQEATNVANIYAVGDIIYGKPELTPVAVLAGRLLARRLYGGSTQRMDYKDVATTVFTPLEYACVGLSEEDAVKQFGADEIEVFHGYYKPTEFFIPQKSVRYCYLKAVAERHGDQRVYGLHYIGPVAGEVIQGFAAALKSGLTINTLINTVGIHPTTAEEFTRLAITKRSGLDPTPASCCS
smiles,measurement,setting,value
"N#CSO [HOSCN, hypothiocyanite]",Inactivation of DmTrxR by oxidant,DmTrxR (containing Cys),is inactivated
same,Inactivation of Sec-TrxR2 by oxidant,[1],resists inactivation
same,IC50,[2],2750 nM
same,HOSCN metabolism activity,[2]; similar conditions,no measurable activity
same,HOSCN IC50,AMT-9,5 µM/h
same,HOSCN IC50,PA 39,5 µM/h
same,HOSCN IC50,PA-X,13 µM/h
same,HOSCN IC50,PAO1,18 µM/h
same,HOSCN IC50,PA-T,48 µM/h
same,Viability (%),P. aeruginosa: AMT0027L [3],0%
same,Apparent Vmax (HOSCN reductase activity),P. aeruginosa: AMT0027L [4],ND^c (No activity detected. Limit of detection = 0.5 nmol mg^−1 min^−1)
same,HOSCN IC50,B. cenocepacia,59 µM/h
same,HOSCN IC50,B. dolsa,79 µM/h
same,HOSCN IC50,B. vietnameisis,64 µM/h
same,HOSCN IC50,B. multivorans 41,18 µM/h
same,Viability (%),P. aeruginosa: AMT0009L [5],4.2 ± 2.1%
same,Apparent Vmax (HOSCN reductase activity),P. aeruginosa: AMT0145L [6],1.4 ± 0.1 nmol/mg/min
same,Viability (%),P. aeruginosa: AMT0145L [7],24.8 ± 2.5%
same,Apparent Vmax (HOSCN reductase activity),P. aeruginosa: AMT0058L,1.2 ± 0.2 nmol/mg/min
same,Apparent Vmax (HOSCN reductase activity),[8],14.7 ± 1.0 nmol/mg/min
same,Apparent Vmax (HOSCN reductase activity),P. aeruginosa: AMT0294L,ND^c (No activity detected. Limit of detection = 0.5 nmol mg^−1 min^−1)
same,Apparent Vmax (HOSCN reductase activity),P. aeruginosa: AMT0009L [9],0.8 ± 0.3 nmol/mg/min
